Consider 16 compounds from ChEMBL document CHEMBL1148780, “Design and evaluation of naphthol- and carbazole-containing fluorescent sigma ligands as potential probes for receptor binding studies” (J Med Chem, 2007).

The structures appear in SMILES notation.

The target of test [1] is Sigma non-opioid intracellular receptor 1 (Cavia porcellus, UniProt Q60492). The experiment in a line: Displacement of [3H]pentazocine from Sigma1 receptor in guinea pig brain membrane. Type of test: cell membranes. Background: Loss of bound radioactivity is the signal in a displacement assay; it reports binding, not function.
Test [2] is described as follows: Displacement of [3H]DTG from sigma2 receptor in Wistar rat liver membrane in presence of 1 uM […]. Type of test: cell membranes.
Test [3] concerns the target T1, 3-beta-hydroxysteroid-Delta(8),Delta(7)-isomerase (Cavia porcellus, UniProt Q60490).
T1 sequence (Q60490 whole entry): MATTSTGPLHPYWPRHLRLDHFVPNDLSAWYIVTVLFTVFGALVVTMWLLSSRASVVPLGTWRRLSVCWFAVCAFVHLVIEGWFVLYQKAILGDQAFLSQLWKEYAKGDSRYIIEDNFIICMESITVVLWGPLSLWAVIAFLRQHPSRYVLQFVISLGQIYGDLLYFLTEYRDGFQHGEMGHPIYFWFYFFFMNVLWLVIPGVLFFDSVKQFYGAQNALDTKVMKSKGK
The experiment in a line: Displacement of [3H]emopamil from Delta-(8)-Delta-(7) sterol isomerase in guinea pig liver membrane. Format: cell membranes.

Test [4] is described as follows: Selectivity for sigma1 receptor over sigma2 receptor.
The nature of test [5]: (§1) Binding affinity to sigma2 receptor in Wistar rat liver membrane. Type of test: cell membranes.
The species entered for another test is Rattus norvegicus. The description is as §1. Format: cell membranes.

Sequence of Sigma non-opioid intracellular receptor 1 (Q60492 whole entry): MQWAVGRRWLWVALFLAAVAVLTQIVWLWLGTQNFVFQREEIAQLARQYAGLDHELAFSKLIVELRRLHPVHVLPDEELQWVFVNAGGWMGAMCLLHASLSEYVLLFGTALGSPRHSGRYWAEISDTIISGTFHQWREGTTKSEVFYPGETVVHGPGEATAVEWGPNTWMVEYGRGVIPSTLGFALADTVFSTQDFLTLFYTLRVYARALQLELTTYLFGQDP

What is called Ki is a dissociation constant, usually derived from enzyme kinetics or from competition with a known ligand. By Kd is commonly meant the equilibrium constant for the complex coming apart. Lower therefore signals a tighter complex. In the case of `Oc1ccc2c(CCCN3CCN(C4CCCCC4)CC3)cccc2c1`, the Ki stood at 6.78 nM in test [1], 26.4 nM in test [2] and 21.3 nM in test [3]. The Ratio Ki in test [4] is 4. Further, the Kd in test [5] came out at 21.3 nM. In the test filed under Rattus norvegicus, the Bmax came out at 0.47 pmol/mg.

Take `CC1(C)CCCN(CCCc2cccc3cc(O)ccc23)C1`: the Ki was determined as 340 nM in test [1], 600 nM in test [2] and 352 nM in test [3]. Also, the Ratio Ki in test [4] came out at 2.

For `COc1ccc2cccc(CCCN3CCCC(C)(C)C3)c2c1`, the Ki is 115 nM in test [1], 672 nM in test [2] and 4.12 nM in test [3]. For the same compound, the Ratio Ki in test [4] came out at 6.

In the case of `COc1ccc2c(CCCN3CCN(C4CCCCC4)CC3)cccc2c1`, the inhibition constant (Ki) in test [1] was 3.16 nM; in test [2], 9.02 nM; in test [3], 7.06 nM. The Ratio Ki in test [4] came out at 3.

Consider `Cc1ccccc1NC(=N)Nc1ccccc1C` [DITOLYLGUANIDINE], for which, in test [2], the Ki was found to be 30.8 nM.

For `COc1cccc2c(CCCN3CCN(C4CCCCC4)CC3)cccc12`, the Ki in test [2] amounted to 9.24 nM; in test [3], 4.51 nM.

Turning to `COc1cccc2c(CCCN3CCCC(C)(C)C3)cccc12`, the values for the Ki in test [1], in test [2] and in test [3] were 44.9 nM, 643 nM and 12.8 nM, respectively. In addition, in test [4], the Ratio Ki amounted to 14.

On to `Oc1ccc2cccc(CCCN3CCN(C4CCCCC4)CC3)c2c1`, for which the Ki in test [1] was found to be 5.48 nM; in test [2] it was 11.8 nM; in test [3], 55 nM. Further, the Ratio Ki in test [4] came to 2.

For the compound `CC1(C)CCCN(CCCn2c3ccccc3c3ccccc32)C1`, the Ki amounted to 2020 nM in test [1], 4480 nM in test [2] and 345 nM in test [3]. In addition, in test [4], the Ratio Ki came out at 2.

On to `COc1ccc2c(CCCN3CCCC(C)(C)C3)cccc2c1`, for which, in test [4], the Ratio Ki is 680.

Consider `c1ccc2c(c1)c1ccccc1n2CCCN1CCN(C2CCCCC2)CC1`, for which the Ki in test [1] stood at 3450 nM; in test [2], 12.6 nM; in test [3], 79.9 nM. For the same compound, in test [4], the Ratio Ki stood at 0.004.

As for `CC1(C)CCCN(CCCCCn2c3ccccc3c3ccccc32)C1`, the figures for the Ki in test [1], in test [2] and in test [3] were 138 nM, 117 nM and 24 nM, respectively. Further, the Ratio Ki in test [4] worked out at 0.8.

With `CC1(C)CCCN(CCCc2cccc3ccc(O)cc23)C1`, the Ki in test [1] worked out at 733 nM; in test [2], 412 nM; in test [3], 30 nM. Also, the Ratio Ki in test [4] worked out at 0.6.

In test [3], `CC(C(O)c1ccc(O)cc1)N1CCC(Cc2ccccc2)CC1` (racemic) [IFENPRODIL] yielded a Ki of 19.8 nM.

`CC1(C)CCCN(CCCCn2c3ccccc3c3ccccc32)C1`: the Ki in test [1] is 175 nM; in test [2] it was 520 nM; in test [3], 270 nM. In addition, the Ratio Ki in test [4] was 3.

Regarding `COc1ccc2cccc(CCCN3CCN(C4CCCCC4)CC3)c2c1`, the Ki in test [1] was found to be 0.9 nM; in test [2], 8.27 nM; in test [3] it was 42.4 nM. Further, in test [4], the Ratio Ki worked out at 9.
